Converted amounts (≈) assume the structure as drawn.
Experiments:
Format in all cases: cell-based
Arizona 6.211 = experiment: M.I.C. in vitro, nutrient agar dilution; settings: 18 h; Table III; Arizona 6.211; read-out: M.I.C.
Protocol: (§1) After sterilisation at 120° C., the pH was 6.8.
(§2) The minimum inhibitory concentrations (M.I.C.) were determined by dilution of the test compounds in this mixture, the concentration ranging from 0.05 to 100 μg/cm^3 in a geometric progression with a factor of 2.
(§3) The inoculation of the dishes was carried out by means of a multiple inoculator with 10^-3 dilutions of 18 hour old broth cultures.
(§4) The dishes were placed in an oven at 37° C. and the readings were taken afer an incubation time of 18 hours. The M.I.C. was taken as the lowest concentration which inhibited a culture.

B. subtilis = experiment: M.I.C. in vitro, nutrient agar dilution; settings: Bacillus subtilis, 18 h; Table III; B. Subtilis; read-out: M.I.C.
Protocol: as §1, §2, §3, §4

Bord. bronchis. 4.617 = experiment: M.I.C. in vitro, nutrient agar dilution; settings: 18 h; Table III; Bord. bronchis. 4.617; read-out: M.I.C.
Protocol: as §1, §2, §3, §4

Esch. coli 111 B4 = experiment: M.I.C. in vitro, nutrient agar dilution; settings: Escherichia coli, 18 h; Table III; Esch. coli 111 B4
Protocol: as §1, §2, §3, §4

Esch. coli 54.127 O.M.S. = experiment: M.I.C. in vitro, nutrient agar dilution; settings: Escherichia coli, 18 h; Table III; Esch. coli 54.127 O.M.S.; read-out: M.I.C.
Protocol: as §1, §2, §3, §4

Esch. coli 95 I.S.M. = experiment: M.I.C. in vitro, nutrient agar dilution; settings: Escherichia coli, 18 h; Table III; Esch. coli 95 I.S.M.; read-out: M.I.C.
Protocol: as §1, §2, §3, §4

Klebs. pneum. 10.031 = experiment: M.I.C. in vitro, nutrient agar dilution; settings: 18 h; Table III; Klebs. pneum. 10.031; read-out: M.I.C.
Protocol: as §1, §2, §3, §4

Pr. mirabilis Nig = experiment: M.I.C. in vitro, nutrient agar dilution; settings: Proteus mirabilis, 18 h; Table III; Pr. mirabilis Nig; read-out: M.I.C.
Protocol: as §1, §2, §3, §4

Pr. morganii A.236 = experiment: M.I.C. in vitro, nutrient agar dilution; settings: Morganella morganii, 18 h; Table III; Pr. morganii A. 236; read-out: M.I.C.
Protocol: as §1, §2, §3, §4

Pr. vulgaris 12-53 = experiment: M.I.C. in vitro, nutrient agar dilution; settings: Proteus vulgaris, 1253, 18 h; Table III; Pr. vulgaris 12-53; read-out: M.I.C.
Protocol: as §1, §2, §3, §4

Providentia 0223 = experiment: M.I.C. in vitro, nutrient agar dilution; settings: 18 h; Table III; Providentia 0223; read-out: M.I.C.
Protocol: as §1, §2, §3, §4

Ps. aeruginosa 72.345 = experiment: M.I.C. in vitro, nutrient agar dilution; settings: Pseudomonas aeruginosa, 18 h; Table III; Pd. aeruginosa 72.345; read-out: M.I.C.
Protocol: as §1, §2, §3, §4

Ps. aeruginosa A.22 = experiment: M.I.C. in vitro, nutrient agar dilution; settings: Pseudomonas aeruginosa, 18 h; Table III; Ps. aeruginosa A.22; read-out: M.I.C.
Protocol: as §1, §2, §3, §4

S. enteritidis Danysz = experiment: M.I.C. in vitro, nutrient agar dilution; settings: Salmonella enterica, 18 h; Table III; S. enteritidis Danysz; read-out: M.I.C.
Protocol: as §1, §2, §3, §4

S. oranienburg 1066 = experiment: M.I.C. in vitro, nutrient agar dilution; settings: Salmonella enterica, 18 h; Table III; S. oranienburg 1066; read-out: M.I.C.
Protocol: as §1, §2, §3, §4

Serratia = experiment: M.I.C. in vitro, nutrient agar dilution; settings: 18 h, Table III, read-out: M.I.C.
Protocol: as §1, §2, §3, §4

Sh. sonnei I.P.S. = experiment: M.I.C. in vitro, nutrient agar dilution; settings: Shigella sonnei, 18 h; Table III; Sh. sonnei I.P.S.; read-out: M.I.C.
Protocol: as §1, §2, §3, §4

Staph. 209 P = experiment: M.I.C. in vitro, nutrient agar dilution; settings: 18 h; Table III; Staph. 209 P; read-out: M.I.C.
Protocol: as §1, §2, §3, §4

Staph. 9.144 = experiment: M.I.C. in vitro, nutrient agar dilution; settings: 18 h; Table III; Staph. 9.144; read-out: M.I.C.
Protocol: as §1, §2, §3, §4

Strepto A 561 = experiment: M.I.C. in vitro, nutrient agar dilution; settings: 18 h; Table III; Strepto A 561
Protocol: as §1, §2, §3, §4

Strepto D.M. 19 = experiment: M.I.C. in vitro, nutrient agar dilution; settings: 18 h; Table III; Strepto D.M. 19; read-out: M.I.C.
Protocol: as §1, §2, §3, §4

Salm. typhi 0901 = experiment: microbe, parasite or virus in culture; settings: Salmonella enterica, 18 h; Table III; Salm. typhi 0901
Protocol: as §1, §2, §3, §4

| SMILES | MIC (Arizona 6.211) [µg/mL] | MIC (B. subtilis) [µg/mL] | MIC (Bord. bronchis. 4.617) [µg/mL] | MIC (Esch. coli 111 B4) [µg/mL] | MIC (Esch. coli 54.127 O.M.S.) [µg/mL] | MIC (Esch. coli 95 I.S.M.) [µg/mL] | MIC (Klebs. pneum. 10.031) [µg/mL] | MIC (Pr. mirabilis Nig) [µg/mL] | MIC (Pr. morganii A.236) [µg/mL] | MIC (Pr. vulgaris 12-53) [µg/mL] | MIC (Providentia 0223) [µg/mL] | MIC (Ps. aeruginosa 72.345) [µg/mL] | MIC (Ps. aeruginosa A.22) [µg/mL] | MIC (S. enteritidis Danysz) [µg/mL] | MIC (S. oranienburg 1066) [µg/mL] | MIC (Serratia) [µg/mL] | MIC (Sh. sonnei I.P.S.) [µg/mL] | MIC (Staph. 209 P) [µg/mL] | MIC (Staph. 9.144) [µg/mL] | MIC (Strepto A 561) [µg/mL] | further results |
| --- | --- | --- | --- | --- | --- | --- | --- | --- | --- | --- | --- | --- | --- | --- | --- | --- | --- | --- | --- | --- | --- |
| CN1CCN(c2cc3c(cc2F)c(=O)c(C(=O)O)cn3C)CC1 [Example 31, 6-Fluoro-1-methyl-7-(4-methylpiperazinyl)-4-oxo-1,4-dihydro-quinoline-3-carboxylic acid] | 0.2 to 0.4 (≈ 0.626 to 1.25 µM) | 0.8 (≈ 2.51 µM) | 6.25 (≈ 19.6 µM) | 0.8 (≈ 2.51 µM) | 0.8 (≈ 2.51 µM) | 0.1 (≈ 0.313 µM) | 0.8 (≈ 2.51 µM) | 0.4 (≈ 1.25 µM) | 0.2 (≈ 0.626 µM) | 0.2 (≈ 0.626 µM) | 0.8 to 1.6 (≈ 2.51 to 5.01 µM) | 1.6 (≈ 5.01 µM) | 1.6 (≈ 5.01 µM) | 0.4 (≈ 1.25 µM) | 6.2 to 12.5 (≈ 19.4 to 39.1 µM) | 0.2 (≈ 0.626 µM) | 0.2 to 0.4 (≈ 0.626 to 1.25 µM) | 0.4 (≈ 1.25 µM) | 0.4 (≈ 1.25 µM) | 12.5 (≈ 39.1 µM) | MIC (Strepto D.M. 19): 3.1 to 6.2 µg/mL (≈ 9.71 to 19.4 µM); MIC (Salm. typhi 0901): 0.4 µg/mL (≈ 1.25 µM) |
| Cn1cc(C(=O)O)c(=O)c2cc(F)c(N3CCNCC3)cc21 [Example 32, 6-fluoro-1-methyl-4-oxo-7-piperazinyl-1,4-dihydro-quinoline-3-carboxylic acid] | 0.2 (≈ 0.655 µM) | 0.4 (≈ 1.31 µM) | 6.25 (≈ 20.5 µM) | 0.2 (≈ 0.655 µM) | 0.2 (≈ 0.655 µM) | 0.2 (≈ 0.655 µM) | 0.1 (≈ 0.328 µM) | 0.2 (≈ 0.655 µM) | 0.2 (≈ 0.655 µM) | 0.2 (≈ 0.655 µM) | 1.6 (≈ 5.24 µM) | 0.4 to 3.12 (≈ 1.31 to 10.2 µM) | 0.8 to 3.12 (≈ 2.62 to 10.2 µM) | 0.2 (≈ 0.655 µM) | 12.5 (≈ 40.9 µM) | 0.2 (≈ 0.655 µM) | 0.1 (≈ 0.328 µM) | 0.8 (≈ 2.62 µM) | 0.8 (≈ 2.62 µM) | 6.2 to 12.5 (≈ 20.3 to 40.9 µM) | MIC (Strepto D.M. 19): 12.5 µg/mL (≈ 40.9 µM); MIC (Salm. typhi 0901): 0.8 µg/mL (≈ 2.62 µM) |

— patent US4292317A, “1,4-Dihydro-quinoline-3-carboxylic acid derivatives, process for their preparation and compositions containing them” (Laboratorie Roger Bellon, priority 1977, dated 1981)
